53 compounds from paper PMC5706701, “Development of a homogenous high-throughput assay for inositol hexakisphosphate kinase 1 activity” (PLoS ONE, 2017) can be followed below.

Structures can show the parent of a compound that is named as a salt.

This assay deals with T1, Human IP6K1 (Homo sapiens, UniProt Q92551).
T1 construct: GST (N, cleaved yes); made in house; host or cells: C43 E. coli, pGEX-6P-2
Nature of the assay: IP6K1 high-throughput screen of the Sigma LOPAC (ADP-Glo Max, single point).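 Further: final compound concentration 10µM in 5% DMSO.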 The class given is biochemical. A general note: ADP-Glo turns the ADP formed in a reaction into a luminescent signal.

Where [1] appears, read: LOPAC single-point screen, ADP-Glo Max raw signal per well.
Setting [2] is: LOPAC single-point screen, Z-score from raw signal with plate average and StDev.
Setting [3] is: Sigma LOPAC single-point screen, ADP-Glo Max raw signal per well.
Where [4] appears, read: Sigma LOPAC single-point screen, Z-score from plate average and StDev.
Setting [5] is: LOPAC single-point screen, Z-score against plate average and StDev.
Where [6] appears, read: LOPAC single-point screen, ADP-Glo Max luminescence raw signal per well.
Where [7] appears, read: LOPAC single-point screen, Z-score relative to plate average and StDev.
Where [8] appears, read: LOPAC single-point screen, Z-score from plate average and StDev.

T1 sequence (Q92551 whole entry): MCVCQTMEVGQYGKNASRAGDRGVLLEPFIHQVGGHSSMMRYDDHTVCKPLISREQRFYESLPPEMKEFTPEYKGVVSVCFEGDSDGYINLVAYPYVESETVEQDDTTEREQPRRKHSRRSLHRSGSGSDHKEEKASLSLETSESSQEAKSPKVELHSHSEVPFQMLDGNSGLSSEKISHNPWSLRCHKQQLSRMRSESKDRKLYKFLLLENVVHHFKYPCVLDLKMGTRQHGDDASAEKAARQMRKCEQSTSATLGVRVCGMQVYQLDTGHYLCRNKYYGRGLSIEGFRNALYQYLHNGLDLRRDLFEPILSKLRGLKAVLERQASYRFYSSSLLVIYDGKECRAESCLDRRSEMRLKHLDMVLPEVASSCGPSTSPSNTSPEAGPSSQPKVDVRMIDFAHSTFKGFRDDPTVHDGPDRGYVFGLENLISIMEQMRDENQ

`O=C(/C=C/c1ccc(O)cc1)c1ccc(O)cc1O` [Isoliquiritigenin]: the “Raw Signal” value under setting [1] is reported as 53778. The Z-score under setting [2] is given as -0.1034.
In the case of `CCCCNc1cc(C(=O)O)cc(S(N)(=O)=O)c1Oc1ccccc1` [Bumetanide], the “Raw Signal” value under setting [3] came to 62300. Under setting [4], this compound came in with a Z-score of 0.7727.
Take `COCc1nc2c([nH]1)c(=O)n(C)c(=O)n2CC(C)C`: the “Raw Signal” value under setting [1] was 51997. The same compound yielded a Z-score under setting [2] of -0.4027.
For the compound `Cl.O[Si](CCCN1CCCCC1)(c1ccc(F)cc1)C1CCCCC1` (stereo not shown), the “Raw Signal” value under setting [1] is on record as 52920. Further, the Z-score under setting [2] was -0.4564.
As for `C[C@H](CS)C(=O)N1CCC[C@H]1C(=O)O` [Captopril], under setting [1], the “Raw Signal” value is on record as 58254. Moreover, under setting [5], the Z-score is reported as 0.06004.
In the same order, the values of `Cl.c1ccc2c(N3CCNCC3)cccc2c1` [1-(1-Naphthyl)piperazine hydrochloride] are 55645 and -0.07359.
Take `OC(CCN1CCCCC1)(c1ccccc1)C1CCCCC1` (stereo not shown) [Trihexyphenidyl hydrochloride]: the “Raw Signal” value under setting [3] was 57771. In addition, the Z-score under setting [4] stood at 0.3394.
Take `COc1ccc2c(c1)c(CC(=O)O)c(C)n2C(=O)c1ccccc1`: the “Raw Signal” value under setting [6] came to 53454. Further, under setting [7], the Z-score is -0.7854.
Consider `O=C(O)c1cc(=O)c2ccccc2[nH]1` [Kynurenic acid], for which, under setting [1], the “Raw Signal” value amounted to 53243. Under setting [2], the Z-score is given as -0.1933.
`C[C@@H]1O[C@@H](O[C@H]2C[C@@H](O)[C@]3(CO)[C@H]4[C@H](O)C[C@]5(C)[C@@H](C6=CC(=O)OC6)CC[C@]5(O)[C@@H]4CC[C@]3(O)C2)[C@H](O)[C@H](O)[C@H]1O` [Ouabain]: the “Raw Signal” value under setting [3] is on record as 56928. The same compound had a Z-score under setting [4] of 0.4259.
For the compound `NC(=O)CN1CCCC1=O` [Piracetam], the “Raw Signal” value under setting [3] was 58233. The compound further gave a Z-score under setting [4] of 0.6451.
For the compound `O=C1O/C(=C/Br)CCC1c1cccc2ccccc12` (stereo not shown) [Bromoenol lactone], the “Raw Signal” value under setting [6] is reported as 52508. The Z-score under setting [7] is on record as -0.952.
`CCN(CC)C(=O)c1ccc(O)c(OC)c1` [Vanillic acid diethylamide]: the “Raw Signal” value under setting [1] was 56150. Moreover, the Z-score under setting [5] is reported as 0.1996.
In the same order, the values of `Nc1ncnc2c1ncn2[C@@H]1O[C@H](COP(=O)(O)OP(=O)(O)OP(=O)(O)OP(=O)(O)OC[C@H]2O[C@@H](n3cnc4c(N)ncnc43)[C@H](O)[C@@H]2O)[C@@H](O)[C@H]1O` are 55437 and 0.05483.
As for `NC(=O)CI` [Iodoacetamide], the “Raw Signal” value under setting [6] is given as 64727. Besides, the Z-score under setting [8] worked out at 1.942.
As for `CC(C)COCC(CN(Cc1ccccc1)c1ccccc1)N1CCCC1` (stereo not shown) [Bepridil hydrochloride], the “Raw Signal” value under setting [3] stood at 60020. The Z-score under setting [4] is 0.3711.
In the case of `CCCCCCCCCCCCCCSCC(=O)O` [Tetradecylthioacetic acid], the “Raw Signal” value under setting [1] was 56618. Under setting [5], this compound returned a Z-score of 0.1154.
For `CCN(CC)c1ncnc2c1ncn2[C@@H]1O[C@H](COP(=O)([O-])OP(=O)([O-])C(Br)(Br)P(=O)([O-])O)[C@@H](O)[C@H]1O.[Na+].[Na+].[Na+]` [ARL 67156 trisodium salt], the “Raw Signal” value under setting [6] is given as 54051. The Z-score under setting [7] is -0.6802.
In the case of `CN(C)CCC=C1c2ccccc2C=Cc2ccccc21` [Cyclobenzaprine hydrochloride], the “Raw Signal” value under setting [3] amounted to 63136. This compound yielded a Z-score under setting [4] of 0.9199.
On to `CNC[C@H](O)c1cccc(O)c1` [Phenylephrine hydrochloride], for which the “Raw Signal” value under setting [1] turned out to be 56055. Also, the Z-score under setting [5] is recorded as 0.2792.
In the same order, the values of `COc1cc(C=C(C#N)C#N)cc(O)c1O` [Tyrphostin AG 34] are 55934 and -0.01745.
Regarding `C/C(=C\c1ccc(C(=O)O)cc1)c1ccc2c(c1)C(C)(C)CCC2(C)C` [TTNPB], the “Raw Signal” value under setting [1] was found to be 53849. Further, under setting [2], the Z-score is -0.4225.
On to `CC1=C(/C=C/C(C)=C/C=C/C(C)=C/C(=O)O)C(C)(C)CCC1` [Retinoic acid], for which, under setting [6], the “Raw Signal” value was determined as 50659. The compound also yielded a Z-score under setting [7] of -1.042.
In the case of `COc1ccc2cc([C@H](C)C(=O)[O-])ccc2c1.[Na+]` [(-)-Naproxen sodium], under setting [3], the “Raw Signal” value is on record as 56716. Under setting [4], this compound came in with a Z-score of 0.3902.
In the case of `Clc1ccc(N2C[C@H]3CC[C@@H](C2)N3)nn1` [DBO-83], the “Raw Signal” value under setting [1] worked out at 54063. This compound came in with a Z-score under setting [2] of -0.2242.
As to `Cc1nc2c([nH]1)c(=O)n(C)c(=O)n2Cc1ccco1` [Furafylline], under setting [1], the “Raw Signal” value is 55994. Under setting [5], this compound registered a Z-score of 0.1679.
As to `N=c1ccn2c(n1)O[C@H]1[C@H](O)[C@@H](CO)O[C@H]12` [Ancitabine hydrochloride], under setting [1], the “Raw Signal” value was 57428. The Z-score under setting [5] is -0.08544.
Take `NCCc1c[nH]c2ccc(C(N)=O)cc12.O=C(O)/C=C\C(=O)O` [5-Carboxamidotryptamine maleate]: the “Raw Signal” value under setting [6] amounted to 52599. Under setting [7], this compound had a Z-score of -0.5215.
Take `NNCCc1ccccc1` [Phenelzine sulfate]: the “Raw Signal” value under setting [3] was 58733. The compound further had a Z-score under setting [4] of 0.5263.
As to `CCCCCCCCCCCCCCCCCCOCC(COP(=O)([O-])OCC[N+](C)(C)C)OC` (stereo not shown) [ET-18-OCH3], the “Raw Signal” value under setting [6] came out at 51314. Further, the Z-score under setting [7] is -0.7825.
For the compound `CN/C(=N/CCSCc1nc[nH]c1C)NC#N` [Cimetidine], the “Raw Signal” value under setting [3] was determined as 62612. Also, the Z-score under setting [4] is listed as 0.8276.
As to `CCn1cnc2c(Nc3cccc(Cl)c3)nc(N[C@@H]3CCCC[C@@H]3N)nc21.Cl` [CGP-74514A hydrochloride], the “Raw Signal” value under setting [1] came to 58874. Under setting [5], the Z-score is 0.1692.
For `COc1cc(C(=O)OCCCN2CCCN(CCCOC(=O)c3cc(OC)c(OC)c(OC)c3)CC2)cc(OC)c1OC` [Dilazep hydrochloride], the “Raw Signal” value under setting [1] was determined as 56027. This compound also returned a Z-score under setting [5] of 0.1747.
Turning to `CN(N=O)c1cc(O)ccc1O` [Dephostatin], the “Raw Signal” value under setting [1] turned out to be 55962. Moreover, the Z-score under setting [5] is listed as 0.1615.
As for `c1ccc(C2CC2)c(OCC2=NCCN2)c1` [Cirazoline hydrochloride], the “Raw Signal” value under setting [6] worked out at 48676. Further, the Z-score under setting [7] is on record as -1.318.
In the same order, the values of `CCCCCCCCCCCCCCCCCCNC(=O)OCC(COP(=O)([O-])OCC[n+]1ccsc1)OC` (stereo not shown) [CV-3988] are 52703 and -0.6452.
Consider `OCCN1CCN(CCCN2c3ccccc3Sc3ccc(C(F)(F)F)cc32)CC1` [Fluphenazine dihydrochloride], for which the “Raw Signal” value under setting [3] amounted to 57313. Under setting [4], this compound showed a Z-score of 0.4358.
On to `C[N+](C)(C)CC=O` [Betaine aldehyde chloride], for which the “Raw Signal” value under setting [1] was found to be 58689. The same compound registered a Z-score under setting [5] of 0.1367.
In the case of `CC1=NN=C(c2ccc(N)cc2)c2cc3c(cc2C1)OCO3.Cl` [GYKI 52466 hydrochloride], the “Raw Signal” value under setting [6] was 61943. This compound returned a Z-score under setting [8] of 1.376.
Consider `CCOC(=O)c1ncn2c1CN(C)C(=O)c1cc(F)ccc1-2` [Flumazenil], for which, under setting [6], the “Raw Signal” value amounted to 52634. Under setting [7], the Z-score is -0.5144.
On to `Cl.NCCNC(=O)c1ccc(Cl)cc1` [Ro 16-6491 hydrochloride], for which, under setting [3], the “Raw Signal” value was determined as 60492. In addition, the Z-score under setting [4] came to 0.8681.
Regarding `CCN(CC)CCOC(=O)c1cc(Cl)c(N)cc1OC.Cl` [SDZ-205,557 hydrochloride], the “Raw Signal” value under setting [1] was found to be 56215. In addition, the Z-score under setting [5] is given as 0.03715.
As to `O=C(O)c1ccccc1Nc1ccccc1` [N-Phenylanthranilic acid], the “Raw Signal” value under setting [3] amounted to 63268. The same compound returned a Z-score under setting [4] of 0.9431.
As for `Nc1nccc2c1ncn2[C@@H]1O[C@H](CO)[C@@H](O)[C@H]1O` [3-deazaadenosine], under setting [6], the “Raw Signal” value is 51727. Under setting [7], the Z-score is given as -0.6986.
For `C[N+](C)(C)CC#CCN1CCCC1=O` [Oxotremorine methiodide], the “Raw Signal” value under setting [6] is 63016. The Z-score under setting [8] is 1.4488.
Consider `Cc1nnc(SCC2=C(C(=O)O)N3C(=O)[C@@H](NC(=O)Cn4cnnn4)[C@H]3SC2)s1` [Cefazolin sodium], for which the “Raw Signal” value under setting [1] turned out to be 59148. The same compound yielded a Z-score under setting [5] of 0.2175.
In the same order, the values of `CCCCCCCCCCCCCC(=O)O[C@@H]1[C@@H](C)[C@@]2(O)[C@@H](C=C(CO)C[C@]3(O)C(=O)C(C)=C[C@@H]23)[C@@H]2C(C)(C)[C@]12OC(C)=O` [Phorbol 12-myristate 13-acetate] are 57693 and 0.3243.
For `C=C[C@H]1C[N@@]2CC[C@H]1C[C@@H]2[C@@H](O)c1ccnc2ccc(OC)cc12` [Quinidine sulfate], under setting [1], the “Raw Signal” value came out at 56373. This compound registered a Z-score under setting [5] of 0.06784.
Regarding `C[C@]12CC[C@H](OS(=O)(=O)[O-])CC1=CC[C@@H]1[C@@H]2CC[C@]2(C)C(=O)CC[C@@H]12.[Na+]` [Dehydroisoandrosterone 3-sulfate sodium], under setting [1], the “Raw Signal” value amounted to 55598. The Z-score under setting [5] was 0.08752.
In the same order, the values of `CC(C[N+](C)(C)C)OC(N)=O` (stereo not shown) [Bethanechol chloride] are 59240 and 0.2337.
Turning to `Br.CCCN(CCC)[C@@H]1CCc2ccc(O)cc2C1` [R-(+)-7-Hydroxy-DPAT hydrobromide], the “Raw Signal” value under setting [6] is 62909. Also, the Z-score under setting [8] is listed as 1.572.
On to `N#C/C(=C\c1ccc(O)c(O)c1)C(=O)c1ccc(O)c(O)c1` [Tyrphostin AG 538], for which the “Raw Signal” value under setting [6] is recorded as 38614. Under setting [7], this compound had a Z-score of -3.382.
Consider `CNCC[C@H](Oc1ccc(C(F)(F)F)cc1)c1ccccc1.Cl` [S-(+)-Fluoxetine hydrochloride], for which the “Raw Signal” value under setting [3] came out at 58446. The Z-score under setting [4] was 0.6659.
